Tests used:
Settings in all cases: 72 h
HepG2 [1] = test: relative viability EC50 (midpoint between 100% and the lowest measured viability); higher = less toxic
Calu-3 [2] = test: as above
U2OS [3] = test: as above
Caco-2 [4] = test: as above
Vero E6 [5] = test: as above
HepG2 [6] = test: cell viability relative to DMSO; higher = less toxic
Calu-3 [7] = test: as above
U2OS [8] = test: as above
Caco-2 [9] = test: as above
Vero E6 [10] = test: as above
HepG2 [11] = test: drug sensitivity score (DSS) for viability; higher = more toxic; extreme values may be limits of the assay
Calu-3 [12] = test: as above
U2OS [13] = test: as above
Caco-2 [14] = test: as above
Vero E6 [15] = test: as above

Structure (SMILES) | relative viability EC50 (HepG2 [1]) [µM] | relative viability EC50 (Calu-3 [2]) [µM] | relative viability EC50 (U2OS [3]) [µM] | relative viability EC50 (Caco-2 [4]) [µM] | relative viability EC50 (Vero E6 [5]) [µM] | cell viability (HepG2 [6]; 1 nM) [%] | cell viability (HepG2 [6]; 10 nM) [%] | cell viability (HepG2 [6]; 100 nM) [%] | cell viability (HepG2 [6]; 1000 nM) [%] | cell viability (HepG2 [6]; 10000 nM) [%] | cell viability (Calu-3 [7]; 1 nM) [%] | cell viability (Calu-3 [7]; 10 nM) [%] | cell viability (Calu-3 [7]; 100 nM) [%] | cell viability (Calu-3 [7]; 1000 nM) [%] | cell viability (Calu-3 [7]; 10000 nM) [%] | cell viability (U2OS [8]; 1 nM) [%] | cell viability (U2OS [8]; 10 nM) [%] | cell viability (U2OS [8]; 100 nM) [%] | cell viability (U2OS [8]; 1000 nM) [%] | cell viability (U2OS [8]; 10000 nM) [%] | cell viability (Caco-2 [9]; 1 nM) [%] | cell viability (Caco-2 [9]; 10 nM) [%] | cell viability (Caco-2 [9]; 100 nM) [%] | cell viability (Caco-2 [9]; 1000 nM) [%] | cell viability (Caco-2 [9]; 10000 nM) [%] | cell viability (Vero E6 [10]; 1 nM) [%] | cell viability (Vero E6 [10]; 10 nM) [%] | cell viability (Vero E6 [10]; 100 nM) [%] | cell viability (Vero E6 [10]; 1000 nM) [%] | cell viability (Vero E6 [10]; 10000 nM) [%] | drug sensitivity score (HepG2 [11]) | drug sensitivity score (Calu-3 [12]) | drug sensitivity score (U2OS [13]) | drug sensitivity score (Caco-2 [14]) | drug sensitivity score (Vero E6 [15])
CCO[C@@H](Cc1ccc(OCCn2c(C)ccc2-c2ccc(SC)cc2)cc1)C(=O)O [saroglitazar] | > 10 | > 10 | > 10 | > 10 | > 10 | 97.3 | 95.5 | 88.4 | 97.1 | 104 | 93.3 | 80.3 | 97.6 | 89.9 | 105 | 102 | 89.1 | 101 | 97.5 | 93.9 | 92 | 92.8 | 122 | 93.7 | 100 | 99.5 | 96.3 | 88.1 | 87.8 | 95.2 | 0 | 0 | 0 | 0 | 1.2
CN1[C@@H]2C[C@@H](O)C[C@H]1[C@@H]1O[C@@H]12 [scopine] | > 10 | > 10 | > 10 | > 10 | > 10 | 97.2 | 99.7 | 96.7 | 99.8 | 97 | 102 | 90.1 | 98.8 | 103 | 103 | 98.4 | 93.4 | 96.1 | 96 | 102 | 104 | 93 | 96.1 | 98.3 | 105 | 104 | 108 | 106 | 106 | 98.8 | 0 | 0 | 0 | 0 | 0
COc1cc(C2Oc3cc([C@H]4Oc5cc(O)cc(O)c5C(=O)[C@@H]4O)ccc3OC2CO)ccc1O (stereo not given in full) [silibinin] | > 10 | > 10 | > 10 | > 10 | > 10 | 100 | 97.8 | 101 | 91.1 | 93.1 | 99.9 | 108 | 92.6 | 98.6 | 99.3 | 96 | 103 | 95.8 | 98.9 | 93.6 | 103 | 102 | 93 | 104 | 100 | 99.1 | 106 | 101 | 103 | 99.2 | 0 | 0 | 0 | 0 | 0
CC(=O)OC[C@H]1O[C@@](COC(C)=O)(O[C@H]2O[C@H](COC(C)=O)[C@@H](OC(C)=O)[C@H](OC(C)=O)[C@H]2OC(C)=O)[C@@H](OC(C)=O)[C@@H]1OC(C)=O [sucrose-octaacetate] | > 10 | > 10 | > 10 | > 10 | > 10 | 93 | 100 | 102 | 103 | 109 | 102 | 96.3 | 99 | 103 | 108 | 95.1 | 89.6 | 97.7 | 102 | 102 | 102 | 99.6 | 97 | 93 | 98.4 | 98.5 | 100 | 94.1 | 94.6 | 110 | 0 | 0 | 0 | 0 | 0
O=C1C(CC[S+]([O-])c2ccccc2)C(=O)N(c2ccccc2)N1c1ccccc1 (stereo not given) [sulfinpyrazone] | > 10 | > 10 | > 10 | > 10 | > 10 | 109 | 115 | 110 | 97.7 | 110 | 93.2 | 98 | 98.9 | 94 | 105 | 97.5 | 102 | 104 | 102 | 102 | 102 | 103 | 98.5 | 99.8 | 90.5 | 106 | 103 | 100 | 97.1 | 103 | 0 | 0 | 0 | 0 | 0
COc1cc(O)c(C(=O)c2ccccc2)cc1S(=O)(=O)O [sulisobenzone] | > 10 | > 10 | > 10 | > 10 | > 10 | 93.3 | 101 | 99.8 | 99.3 | 98.3 | 100 | 106 | 98.1 | 109 | 102 | 103 | 94.8 | 98.4 | 94.6 | 98.7 | 104 | 96.3 | 102 | 91.8 | 103 | 103 | 99.1 | 95.7 | 95.9 | 89.9 | 0 | 0 | 0 | 0 | 0
Cn1nnc2c(C(N)=O)ncn2c1=O [temozolomide] | > 10 | > 10 | > 10 | > 10 | > 10 | 112 | 99.6 | 104 | 93.5 | 114 | 97.6 | 106 | 102 | 94.5 | 98.6 | 98 | 103 | 92.3 | 96.8 | 95 | 90.3 | 97.3 | 96 | 106 | 99.3 | 99.4 | 97.5 | 95.9 | 98.2 | 102 | 0 | 0 | 0 | 0 | 0
O=C1NCCNC1c1cccs1 (stereo not given) [tenilsetam] | > 10 | > 10 | > 10 | > 10 | > 10 | 106 | 106 | 96.4 | 97.2 | 92.3 | 92.3 | 98.2 | 100 | 97.1 | 99.1 | 103 | 96.3 | 104 | 96.2 | 102 | 105 | 95.1 | 103 | 97.5 | 97.4 | 97.2 | 103 | 90.1 | 97.7 | 101 | 0 | 0 | 0 | 0 | 0
CN(C/C=C/C#CC(C)(C)C)Cc1cccc2ccccc12 [terbinafine] | > 10 | > 10 | > 10 | > 10 | > 10 | 99.4 | 91.9 | 101 | 99.6 | 89 | 103 | 102 | 106 | 92.9 | 114 | 103 | 98.9 | 95.3 | 99.5 | 102 | 93 | 81.1 | 90.5 | 112 | 88.5 | 104 | 94.2 | 109 | 94.5 | 95.6 | 0 | 0 | 0 | 0 | 0
Clc1ccc(C(Cn2ccnc2)OCc2ccsc2Cl)c(Cl)c1 (stereo not given) [tioconazole] | > 10 | > 10 | > 10 | > 10 | > 10 | 108 | 100 | 112 | 102 | 90.7 | 103 | 92.8 | 102 | 90.8 | 99.5 | 100 | 97.2 | 96.9 | 92.9 | 93 | 106 | 95 | 93.5 | 99 | 81.2 | 100 | 104 | 99.8 | 97 | 101 | 0 | 0 | 0 | 0.6 | 0
CC(=O)Nc1cccc(-n2c(=O)n(C3CC3)c(=O)c3c(Nc4ccc(I)cc4F)n(C)c(=O)c(C)c32)c1 [trametinib] | 0.0064 | 0.0536 | 0.695 | 0.0156 | 0.129 | 99.3 | 45.5 | 30.5 | 25.3 | 23.2 | 94.8 | 73.6 | 62 | 33.8 | 24.8 | 99.3 | 91.9 | 89.7 | 60.8 | 29.3 | 80.4 | 65.4 | 40.6 | 21.3 | 16 | 101 | 94.2 | 67.9 | 15.7 | 15.8 | 30.5 | 19 | 9 | 26.5 | 19.2
CC(/C=C/C(=O)NO)=C\[C@@H](C)C(=O)c1ccc(N(C)C)cc1 [trichostatin-a] | 0.194 | 0.336 | 0.162 | 0.0788 | 0.0838 | 101 | 93.1 | 84.2 | 0.4 | 0 | 107 | 103 | 89 | 20.4 | 7.5 | 99.7 | 95.4 | 77.3 | 1 | 0.7 | 97.3 | 101 | 37.1 | 2.4 | 3 | 98.7 | 94.4 | 44 | -0.2 | -0.1 | 20.6 | 16 | 21.4 | 24.9 | 24.6
CC1Sc2c(C(=O)O)c(=O)c3cc(F)c(N4CCNCC4)cc3n21 (stereo not given) [ulifloxacin] | > 10 | > 10 | > 10 | > 10 | > 10 | 112 | 98.9 | 86.5 | 98.2 | 78.9 | 116 | 95.3 | 94 | 106 | 102 | 99.1 | 101 | 98.2 | 97.9 | 83.8 | 95.8 | 124 | 107 | 108 | 104 | 96.5 | 95.9 | 109 | 104 | 90.5 | 0.7 | 0 | 0.5 | 0 | 0
Oc1nc(O)c2nc(O)[nH]c2n1 [uric-acid] | > 10 | > 10 | > 10 | > 10 | > 10 | 94.7 | 97.1 | 95.9 | 92.5 | 96 | 96 | 95.3 | 93.5 | 98.4 | 101 | 101 | 107 | 99.6 | 102 | 98.4 | 96.5 | 98 | 92.6 | 91 | 95.9 | 98 | 104 | 97.9 | 102 | 98.4 | 0 | 0 | 0 | 0 | 0

Source: the supplement of paper PMC13380429
